Data taken from patent publication US20240239861A1, “GLUCAGON-RECEPTOR SELECTIVE POLYPEPTIDES AND METHODS OF USE THEREOF” (i2O Therapeutics, Inc., priority 2016, published 2024).
Read-outs that look alike come from different tables or passages of the source. Where a SMILES comes first, the peptide text is derived from it. [ ]: non-standard residue; d: D form. Aib = CC(C)(N)C(=O)O

What was measured:
[1] = Stability in water or saline at 37° C. and room temperature, 30 days, LC/MS and HPLC purity; format: physicochemical
Text: Samples were withdrawn at a regular interval for 30 days and analyzed by LC/MS and HPLC for determination of purity and mass of the degradation product.

[2] = 3-hour intravenous infusion pharmacokinetics, peptide clearance (CL); settings: male, rat, in vivo
Experimental: (§1) Peptides were formulated in sterile saline and administered as a 3-hour intravenous infusion to non-fasted male Wistar Han or Sprague-Dawley rats (n=3 per group) via jugular vein cannula at a final dose of 0.3 or 0.1 mg/kg. […] Plasma was prepared by centrifugation and stored at −80° C. until analysis.
(§2) Protein Precipitation: All 96-well plates were coated with a blocking agent to mitigate non-specific binding of peptides. Plasma samples (75 uL) were added to a 96-well plate containing 200 uL of 2:1 ethanol:acetonitrile containing 0.1% TFA and mixed well via aspiration. Plates were capped, vortex-mixed and centrifuged. Supernatants (215 uL) were transferred to a clean 96-well plate, evaporated to dryness under nitrogen flow and then reconstituted in 75 μL of 20% acetonitrile in water containing 0.10% formic acid.
(§3) Solid-Phase Extraction: Samples were diluted 3-fold with 5% NH4OH (aq) and loaded onto an Oasis MAX microElution plate (Waters Corp, Milford, MA) that had been pre-conditioned with 200 uL each of methanol and 5% NH4OH (aq). The plate was washed with 200 uL 5% NH4OH (aq), followed by 200 uL 20% acetonitrile in water. […] Samples were reconstituted in 80 uL 0.1% formic acid in water.
(§4) All calibration standards were prepared in control rat plasma containing K2EDTA and protease inhibitor cocktail. […] Samples were injected onto a 2.1×50 mm reverse phase C18 analytical column, typically a Waters ACQUITY UPLC™ HSS T3, 1.8 μm (Waters Corporation, Milford, MA) or similar. […] Typical flow rates were 600 L/min. The column temperature was held constant at 40 or 45° C. Peptides were quantified my monitoring one or more product ions produced from a multiply charged parent ion.

[3] = FIGURE 2B
[4] = target: human GLP-1R (Homo sapiens, UniProt P43220); experiment: Peptide-receptor mediated cAMP accumulation (LANCE Ultra cAMP) in CHO-K1 cells transfected with human GLP-1R; format: cell-based
Sequence of human GLP-1R (P43220 24-463): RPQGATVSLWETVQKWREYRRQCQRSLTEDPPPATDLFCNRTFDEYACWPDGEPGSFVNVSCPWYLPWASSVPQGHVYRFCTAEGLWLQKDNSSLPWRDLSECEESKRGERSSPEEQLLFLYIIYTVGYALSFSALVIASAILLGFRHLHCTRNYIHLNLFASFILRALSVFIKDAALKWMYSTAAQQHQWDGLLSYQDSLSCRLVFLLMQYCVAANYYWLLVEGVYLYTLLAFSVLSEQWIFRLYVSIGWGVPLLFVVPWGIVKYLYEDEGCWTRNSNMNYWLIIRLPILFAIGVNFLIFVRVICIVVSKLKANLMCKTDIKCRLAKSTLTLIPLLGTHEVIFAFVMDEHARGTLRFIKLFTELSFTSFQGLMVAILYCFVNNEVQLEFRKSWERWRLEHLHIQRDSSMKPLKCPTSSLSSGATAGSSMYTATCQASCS

[5] = Solubility in water or saline at room temperature, visual inspection; format: physicochemical
Text: Samples were visually inspected for clarity of the sample, any appearance of turbidity or haziness.

[6] = target: human GCGR (Homo sapiens, UniProt P47871); experiment: Peptide-receptor mediated cAMP accumulation (LANCE Ultra cAMP) in CHO-K1 cells transfected with human GCGR; format: cell-based; settings: for hGCGR pEC50 (cAMP mean (n = 3): 11 point curve starting at 1 nM): Table 3
Sequence of human GCGR (P47871 26-477): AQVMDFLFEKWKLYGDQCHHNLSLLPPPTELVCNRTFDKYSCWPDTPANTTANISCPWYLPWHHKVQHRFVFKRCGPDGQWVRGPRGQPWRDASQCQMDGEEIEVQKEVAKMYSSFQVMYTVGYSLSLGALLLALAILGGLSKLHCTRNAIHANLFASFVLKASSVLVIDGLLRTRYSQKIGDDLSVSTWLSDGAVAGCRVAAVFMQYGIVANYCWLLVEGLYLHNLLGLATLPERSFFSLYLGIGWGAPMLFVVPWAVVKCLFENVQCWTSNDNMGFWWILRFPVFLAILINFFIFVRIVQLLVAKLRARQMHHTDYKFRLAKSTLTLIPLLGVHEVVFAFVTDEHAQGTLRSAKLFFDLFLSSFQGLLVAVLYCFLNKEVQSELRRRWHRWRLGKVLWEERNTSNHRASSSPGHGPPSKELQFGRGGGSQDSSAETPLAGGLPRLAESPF

[7] = in vivo; settings: male, rat
Experimental: as §1, §2, §3, §4

[8] = FIGURE 2A
[9] = hGLP1 pEC50 (cAMP mean (n = 3): 11 point curve starting at 1 nM, Table 3)
[10] = hGLP1 pEC50 (cAMP) mean (n = 9): 11 point curve starting at 500 uM, Table 2A
[11] = hGLP1 pEC50 (cAMP) mean (n = 3): 11 point curve starting at 1 nM, Table 2B

Row | Compound | Stability 1 mg/ml in water at 37 degC ([1]; Table 3, % printed only in cells of A1-A6) [%] | clearance [2] [mL/min/kg] | CL [3] [mL/min/kg] | EC50 [4, 9] [nM] | EC50 [4, 10] [nM] | solubility ([5]; Table 3, room temperature, read-out: Solubility in water) [mg/mL] | EC50 [6] [nM] | hGCGR pEC50 (cAMP mean (n = 3): 11 point curve starting at 1 nM) [6] | Stability 1 mg/ml in water at 37 degC [1] [%] | solubility ([5]; Solubility in water mg/ml) [mg/mL] | clearance [7] [mL/min/kg] | EC50 ([6]; Table 2A) [nM] | EC50 [4, 11] [nM] | CL [8] [mL/min/kg] | EC50 ([6]; Table 2B) [nM]
1 | CC[C@H](C)[C@H](NC(=O)[C@@H](NC(=O)[C@H](Cc1ccccc1)NC(=O)[C@H](CCC(=O)O)NC(=O)[C@H](CCC(N)=O)NC(=O)[C@H](C)NC(=O)[C@H](CCCNC(=N)N)NC(=O)[C@H](CCCCN)NC(=O)C(C)(C)NC(=O)[C@H](CC(=O)O)NC(=O)[C@H](CC(C)C)NC(=O)[C@H](Cc1ccc(O)cc1)NC(=O)[C@H](CCCCN)NC(=O)[C@H](CO)NC(=O)[C@H](Cc1ccc(O)cc1)NC(=O)[C@H](CC(=O)O)NC(=O)[C@H](CO)NC(=O)[C@@H](NC(=O)[C@H](Cc1ccccc1)NC(=O)[C@@H](NC(=O)CNC(=O)[C@H](Cc1c[nH]cn1)NC(=O)[C@H](CO)NC(=O)[C@@H](N)Cc1ccc(O)cc1)[C@@H](C)O)[C@@H](C)O)C(C)C)C(=O)N[C@@H](Cc1c[nH]c2ccccc12)C(=O)N[C@@H](CC(C)C)C(=O)N[C@@H](CCC(=O)O)C(=O)N[C@@H](CC(=O)O)C(=O)N[C@@H](CCC(=O)O)C(=O)N1CCC[C@H]1C(=O)N[C@@H](CO)C(=O)N[C@@H](CO)C(=O)NCC(=O)N[C@@H](C)C(=O)N1CCC[C@H]1C(=O)N1CCC[C@H]1C(=O)N1CCC[C@H]1C(=O)N[C@@H](CO)C(=O)O [Compound A4] | >81 | 12.6 | 15.0 ± 0.7 | > 10000 | > 10000 | > 200 | 0.00158 | 11.8 |  |  |  |  |  |  | 
2 | CC(C)C[C@H](NC(=O)[C@H](Cc1ccc(O)cc1)NC(=O)[C@H](CCCCN)NC(=O)[C@H](CO)NC(=O)[C@H](Cc1ccc(O)cc1)NC(=O)[C@H](CC(=O)O)NC(=O)[C@H](CO)NC(=O)[C@@H](NC(=O)[C@H](Cc1ccccc1)NC(=O)[C@@H](NC(=O)CNC(=O)[C@H](Cc1c[nH]cn1)NC(=O)[C@H](CO)NC(=O)[C@@H](N)Cc1ccc(O)cc1)[C@@H](C)O)[C@@H](C)O)C(=O)N[C@@H](CC(=O)O)C(=O)N[C@@H](CO)C(=O)N[C@@H](C)C(=O)N[C@@H](CCCNC(=N)N)C(=O)N[C@@H](C)C(=O)N[C@@H](CCC(N)=O)C(=O)N[C@@H](CCC(=O)O)C(=O)N[C@@H](Cc1ccccc1)C(=O)N[C@H](C(=O)N[C@@H](CCCCN)C(=O)N[C@@H](Cc1c[nH]c2ccccc12)C(=O)N[C@@H](CC(C)C)C(=O)N[C@@H](CCC(=O)O)C(=O)N[C@@H](CC(=O)O)C(=O)N[C@@H](CCC(=O)O)C(=O)N1CCC[C@H]1C(=O)N[C@@H](CO)C(=O)N[C@@H](CO)C(=O)NCC(=O)N[C@@H](C)C(=O)N1CCC[C@H]1C(=O)N1CCC[C@H]1C(=O)N1CCC[C@H]1C(=O)N[C@@H](CO)C(N)=O)C(C)C [Compound A5] (H-YSHGTFTSDYSKYLDSARAQEFVKWLEDEPSSGAPPPS-NH2; N-terminus assumed) |  |  | 22.6 ± 0.6 | 1580 | 1580 |  |  | 11.8 | >94 | > 200 | 11.7 | 0.00158 |  |  | 
3 | CC(C)C[C@H](NC(=O)[C@H](Cc1ccc(O)cc1)NC(=O)[C@H](CCCCN)NC(=O)[C@H](CO)NC(=O)[C@H](Cc1ccc(O)cc1)NC(=O)[C@H](CC(=O)O)NC(=O)[C@H](CO)NC(=O)[C@@H](NC(=O)[C@H](Cc1ccccc1)NC(=O)[C@@H](NC(=O)CNC(=O)[C@H](CCC(N)=O)NC(=O)[C@H](CO)NC(=O)[C@@H](N)Cc1c[nH]c2ccccc12)[C@@H](C)O)[C@@H](C)O)C(=O)N[C@@H](CC(=O)O)C(=O)NC(C)(C)C(=O)N[C@@H](CCCCN)C(=O)N[C@@H](CCCNC(=N)N)C(=O)N[C@@H](C)C(=O)N[C@@H](CCC(N)=O)C(=O)N[C@@H](CCC(=O)O)C(=O)N[C@@H](Cc1ccccc1)C(=O)N[C@H](C(=O)NC(C)(C)C(=O)N[C@@H](Cc1c[nH]c2ccccc12)C(=O)N[C@@H](CC(C)C)C(=O)N[C@@H](CCC(=O)O)C(=O)N[C@@H](CC(=O)O)C(=O)N[C@@H](CCC(=O)O)C(=O)N1CCC[C@H]1C(=O)N[C@@H](CO)C(=O)N[C@@H](CO)C(=O)NCC(=O)N[C@@H](C)C(=O)N1CCC[C@H]1C(=O)N1CCC[C@H]1C(=O)N1CCC[C@H]1C(=O)N[C@@H](CO)C(=O)O)C(C)C [Compound A6] (H-WSQGTFTSDYSKYLD[Aib]KRAQEFV[Aib]WLEDEPSSGAPPPS-OH; N-terminus assumed) |  |  | 9.2 ± 0.2 | 5010 | 5010 |  |  | 11.7 | >80 | > 200 | 12.4 | 0.002 |  |  | 
4 | CC(C)C[C@H](NC(=O)[C@H](Cc1ccc(O)cc1)NC(=O)[C@H](CCCCN)NC(=O)[C@H](CO)NC(=O)[C@H](Cc1ccc(O)cc1)NC(=O)[C@H](CC(=O)O)NC(=O)[C@H](CO)NC(=O)[C@@H](NC(=O)[C@H](Cc1ccccc1)NC(=O)[C@@H](NC(=O)CNC(=O)[C@H](Cc1c[nH]cn1)NC(=O)[C@H](CO)NC(=O)[C@@H](N)Cc1ccc(O)cc1)[C@@H](C)O)[C@@H](C)O)C(=O)N[C@@H](CC(=O)O)C(=O)NC(C)(C)C(=O)N[C@@H](CCCCN)C(=O)N[C@@H](CCCNC(=N)N)C(=O)N[C@@H](C)C(=O)N[C@@H](CCC(N)=O)C(=O)N[C@@H](CCC(=O)O)C(=O)N[C@@H](Cc1ccccc1)C(=O)N[C@H](C(=O)NC(C)(C)C(=O)N[C@@H](Cc1c[nH]c2ccccc12)C(=O)N[C@@H](CC(C)C)C(=O)N[C@@H](CCC(=O)O)C(=O)N[C@@H](CC(=O)O)C(=O)N[C@@H](CCC(=O)O)C(=O)N1CCC[C@H]1C(=O)N[C@@H](CO)C(=O)N[C@@H](CO)C(=O)NCC(=O)N[C@@H](C)C(=O)N1CCC[C@H]1C(=O)N1CCC[C@H]1C(=O)N1CCC[C@H]1C(=O)N[C@@H](CO)C(=O)O)C(C)C [Compound A99] |  |  |  | > 1 |  |  |  |  | >64 | > 200 | 23 |  | > 1 | 22.3 ± 1.9 | 
5 | CC(C)C[C@H](NC(=O)[C@H](Cc1c[nH]c2ccccc12)NC(=O)[C@H](CCCCN)NC(=O)[C@@H](NC(=O)[C@H](Cc1ccccc1)NC(=O)[C@H](CCC(=O)O)NC(=O)[C@H](CCC(N)=O)NC(=O)[C@H](C)NC(=O)[C@H](CCCNC(=N)N)NC(=O)[C@H](CCCCN)NC(=O)C(C)(C)NC(=O)[C@H](CC(=O)O)NC(=O)[C@H](CC(C)C)NC(=O)[C@H](Cc1ccc(O)cc1)NC(=O)[C@H](CCCCN)NC(=O)[C@H](CO)NC(=O)[C@H](Cc1c[nH]cn1)NC(=O)[C@H](CC(=O)O)NC(=O)[C@H](CO)NC(=O)[C@@H](NC(=O)[C@H](Cc1ccccc1)NC(=O)[C@@H](NC(=O)CNC(=O)[C@H](Cc1c[nH]cn1)NC(=O)CNC(=O)[C@@H](N)Cc1ccc(O)cc1)[C@@H](C)O)[C@@H](C)O)C(C)C)C(=O)N[C@@H](CCC(=O)O)C(=O)N[C@@H](CC(=O)O)C(=O)N[C@@H](CCC(=O)O)C(=O)O [Compound A101] (H-YGHGTFTSDHSKYLD[Aib]KRAQEFVKWLEDE-OH; N-terminus assumed) |  |  |  | > 1 |  |  |  |  | >50 | > 200 |  |  | > 1 | 88.3 ± 9.0 | 0.00501
